From patent US20250255945A1, “CLICK CHEMISTRY HLA POLYPEPTIDES” (IMMUNEO Therapeutics GmbH, priority 2024, published 2025)

How the values were obtained:
[1] = tested on: prostate cancer with bone metastases; test: Case study Example 4: immunization of a subject with prostate cancer and bone metastases with PrCa-PC1/PrCa-PC2; type: in vivo, human; details: after 70 days
Experimental: • Subject: A person • Date of Admission: Oct. 4, 2022 • Complaints: Urinary urgency, interrupted urination, nocturia, and erectile dysfunction
• PSA Level: 99.77 ng/mL (See FIG. 9A) • MRI Examination: Moderately enlarged prostate with extensive, organ-crossing, and infiltrating prostate cancer on the left side. • PSMA-PET Examination: Involvement of the middle gland and apex on the left periphery, infiltrating the left seminal vesicles. No PSMA positive lymph node metastases found, but sclerotic bone metastases reported (See FIG. 9B). • First Biopsies: Taken from bone metastases in the area of the lateral mass of the left sacrum. Pathological assessment confirmed malignant prostatic origin.
(§1) • Step (a): the pharmaceutical composition comprising the 12 synthetic HLA tumor antigen polypeptides and XS15 as adjuvant were synthesized as chemical peptides, • Step (b): the 12 HLA tumor antigen polypeptides were mixed in 25% DMSO/H2O application solution and divided multiple vial units of 1 nil each, Dose per HLA tumor antigen polypeptide: 300 μg
as §1, with “7” for “12”, “ml” for “nil”, “μg […]” for “μg”

[2] = tested on: peripheral blood mononuclear cells (PBMCs); test: IFN-γ ELISPOT assay (ex vivo) with subject PBMCs; type: cell-based, human
Experimental: IFNγ ELISpot analysis (for protocol see A. Lalvani, R. Brookes, S. Hambleton, W. J. Britton, A. V. S. Hill, A. J. McMichael, J Exp Med 1997; 186 (6): 859-865) was performed ex vivo (without further in vitro culturing for expansion) using PBMCs depleted of CD4+ and enriched for CD8+ T cells (CD8+ effectors), or depleted of CD8+ and enriched for CD4+ T cells (CD4+ effectors). Tests were performed in duplicate and with a positive and negative control, Multiscreen filter plates (Merck Millipore) pre-coated with IFNγ-specific antibodies (ELISpotPro kit, Mabtech). 267.000 Cells were used per plate. Plates were scanned using an AID Classic Robot ELISPOT Reader and analyzed by AID ELISPOT 7.0 software (AID Autoimmun Diagnostika). Antigen Peptides (except negative and positive control group) were done in duplicates, spot counts were taken as mean values of each duplicate.
The immunogenicity of each of the six peptides was analyzed by IFN-γ secretion by subject peripheral blood mononuclear cells (PBMCs) using ELIspot assay. […]
The immunogenicity of each peptide was assessed in peripheral blood mononuclear cells (PBMCs) from patients and using the IFN-γ-ELISPOT assay. ELISPOT results were considered positive if the number of spots was at least 2-fold higher than the negative control (medium) and at least 50 spots were detected. […] We also tested the effect of delivery aiding peptides (DACP-1) and peptide extension by overlapping tandemization and tandemization on the immunogenicity of the epitopes.

[3] = Table 4, HTAPP-DACP related to group therapy

Q: CC(O)(CS(=O)(=O)c1ccc(F)cc1)C(=O)Nc1ccc(C#N)c(C(F)(F)F)c1 (stereo not shown) [Bicalutamide] was tested. Which “tolerability (discontinuation)” value [1] did it give?
A: The value was “side effects”.

Q: For “70 (ESGCEERGAAMIQTVDPAAHRQIKIWFQNRRMKWKK) [compound 70]”, which “Elispot [nspots/pM]” value ([2]; Table 6, further HTAPPs, HTAPP-DACPs and reference sequences) is on record?
A: Its value is 153,5 nspots/pM.

Q: For “43 (IGHKVDAVFMKDGFFYFFHGTRQYRQIKIWFQNRRMKWKK) [compound 43]”, which “Elispot [nspots/pM]” value [2, 3] is on record?
A: Its value is 134,2 nspots/pM.

Q: “21 (ETNFKSLFHDLFQKVEERQIKIWFQNRRMKWKK) [compound 21]” was tested. Which “Elispot [nspots/pM]” value ([2]; Table 2, HTAPP-DACP, response in ELISPOT experiments) did it give?
A: Its value is 334,0 nspots/pM.

Q: For “KLVVVGAVGVGKSALTIRQIKIWFQNRRMKWKK [SEQ-ID-No.: 18]”, which “response rate in ELIspot on addition of a DACP” value ([2]; Example 3 subject PBMCs, compared to the HTAPP without DACP) is on record?
A: Its value is “increase in the response rate”.

Q: How did the “Elispot [nspots/pM]” value [2, 3] turn out when “32 (AAKALMSAFYTFRYPLSLRQIKIWFQNRRMKWKK) [compound 32]” was run?
A: Its value is 75,8 nspots/pM.

Q: For “58 (NSSCMGGMNWRPILTIITLRQIKIWFQNRRMKWKK) [compound 58]”, which “Elispot [nspots/pM]” value ([2]; Table 5, HTAPP-DACP related to group therapy) is on record?
A: Its value is 228,3 nspots/pM.
